According to PubChem BioAssay AID2060604 (Molecular Pharmacology Branch, DTP, NCI, 2025):
Values joined by “and” are separate entries in the source; they are usually repeats but may differ in a detail not shown here. Equal values may be shown once. One block for each compound: values may come before it.

Tested on: 379773-124-R-J2-PDC complex spheroids, viability % test/control
Assay: Anticancer human tumor 379773-124-R-J2-PDC patient-derived endometrial carcinoma cell line growth inhibition [CLK]
Details: for viability, T/C: stronger effect = lower value
Method in brief: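 Patient-derived tumor cells grown as complex spheroids with HUVEC endothelial cells and mesenchymal stem cells, treated with drug combinations. Concentrations descend in half-log steps from near clinical Cmax, or from 10 microM if Cmax unknown.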

[1] = curve of first compound, second compound 0.0316 µM
[2] = curve of first compound, second compound 0.1 µM
[3] = curve of first compound, second compound 0.316 µM
[4] = curve of first compound, second compound 1 µM
[5] = curve of first compound, second compound 3.16 µM
[6] = curve of first compound, second compound 10 µM
[7] = second compound 0.0316 µM, first compound 0.0316 µM
[8] = second compound 0.0316 µM, first compound 0.1 µM
[9] = second compound 0.1 µM, first compound 0.0316 µM
[10] = second compound 0.1 µM, first compound 0.1 µM
[11] = second compound 0.316 µM, first compound 0.0316 µM
[12] = second compound 0.316 µM, first compound 0.1 µM
[13] = second compound 1 µM, first compound 0.0316 µM
[14] = second compound 1 µM, first compound 0.1 µM
[15] = second compound 3.16 µM, first compound 0.0316 µM
[16] = second compound 3.16 µM, first compound 0.1 µM
[17] = second compound 10 µM, first compound 0.0316 µM
[18] = second compound 10 µM, first compound 0.1 µM
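Also: compound exposure lasted seven days before the viability readout.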
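For viability, T/C in this document: 100% = DMSO vehicle control wells.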

- IC50 [1]: 13.7 nM
- IC50 [2]: < 0.316 nM
- IC50 [3]: < 0.316 nM
- IC50 [4]: < 0.316 nM
- IC50 [5]: < 0.316 nM
- IC50 [6]: < 0.316 nM
Compound: Cn1ncnc1[C@H]1c2n[nH]c(=O)c3cc(F)cc(c23)N[C@@H]1c1ccc(F)cc1 + CNC(=O)c1ccc(Nc2nc(OC3CCCC3)c3c(-c4ccc5nc(C)oc5c4)c[nH]c3n2)c(OC)c1
- viability, T/C (second compound 0.0316 µM, first compound 0.000316 µM): 71.4%
- viability, T/C (second compound 0.0316 µM, first compound 0.001 µM): 64.9%
- viability, T/C (second compound 0.0316 µM, first compound 0.00316 µM): 65.7%
- viability, T/C (second compound 0.0316 µM, first compound 0.01 µM): 56.2%
- viability, T/C [7]: 34.6%
- viability, T/C [8]: 14.7%
- viability, T/C (second compound 0.1 µM, first compound 0.000316 µM): 41.1%
- viability, T/C (second compound 0.1 µM, first compound 0.001 µM): 35.1%
- viability, T/C (second compound 0.1 µM, first compound 0.00316 µM): 26.6%
- viability, T/C (second compound 0.1 µM, first compound 0.01 µM): 26.9%
- viability, T/C [9]: 17.6%
- viability, T/C [10]: 13.1%
- viability, T/C (second compound 0.316 µM, first compound 0.000316 µM): 39%
- viability, T/C (second compound 0.316 µM, first compound 0.001 µM): 38.5%
- viability, T/C (second compound 0.316 µM, first compound 0.00316 µM): 32.1%
- viability, T/C (second compound 0.316 µM, first compound 0.01 µM): 27.2%
- viability, T/C [11]: 17.1%
- viability, T/C [12]: 8.94%
- viability, T/C (second compound 1 µM, first compound 0.000316 µM): 39.4%
- viability, T/C (second compound 1 µM, first compound 0.001 µM): 30.3%
- viability, T/C (second compound 1 µM, first compound 0.00316 µM): 27.8%
- viability, T/C (second compound 1 µM, first compound 0.01 µM): 21.5%
- viability, T/C [13]: 14%
- viability, T/C [14]: 7.18%
- viability, T/C (second compound 3.16 µM, first compound 0.000316 µM): 35.4%
- viability, T/C (second compound 3.16 µM, first compound 0.001 µM): 31.1%
- viability, T/C (second compound 3.16 µM, first compound 0.00316 µM): 24.1%
- viability, T/C (second compound 3.16 µM, first compound 0.01 µM): 25.2%
- viability, T/C [15]: 16.6%
- viability, T/C [16]: 10.1%
- viability, T/C (second compound 10 µM, first compound 0.000316 µM): 25.4%
- viability, T/C (second compound 10 µM, first compound 0.001 µM): 30.7%
- viability, T/C (second compound 10 µM, first compound 0.00316 µM): 23.5%
- viability, T/C (second compound 10 µM, first compound 0.01 µM): 19.1%
- viability, T/C [17]: 15.1%
- viability, T/C [18]: 9.79%

Compound: O=c1[nH]cc(F)c(=O)[nH]1 + CN1CCN(c2cc(C(=O)Nc3cc4cc(-c5cnn(C)c5)ccc4cn3)ccn2)CC1
- IC50 [1]: > 10000 nM
- IC50 [2]: > 10000 nM
- IC50 [3]: < 31.6 nM
- IC50 [4]: < 31.6 nM
- IC50 [5]: < 31.6 nM
- IC50 [6]: < 31.6 nM
- viability, T/C [7]: 92.2%
- viability, T/C [8]: 86.8%
- viability, T/C (second compound 0.0316 µM, first compound 0.316 µM): 93.4%
- viability, T/C (second compound 0.0316 µM, first compound 1 µM): 82.3%
- viability, T/C (second compound 0.0316 µM, first compound 3.16 µM): 74.5%
- viability, T/C (second compound 0.0316 µM, first compound 10 µM): 56.2%
- viability, T/C [9]: 82%
- viability, T/C [10]: 82.2%
- viability, T/C (second compound 0.1 µM, first compound 0.316 µM): 78.4%
- viability, T/C (second compound 0.1 µM, first compound 1 µM): 67.4%
- viability, T/C (second compound 0.1 µM, first compound 3.16 µM): 70.6%
- viability, T/C (second compound 0.1 µM, first compound 10 µM): 54.1%
- viability, T/C [11]: 24.9%
- viability, T/C [12]: 23.4%
- viability, T/C (second compound 0.316 µM, first compound 0.316 µM): 28.6%
- viability, T/C (second compound 0.316 µM, first compound 1 µM): 22.5%
- viability, T/C (second compound 0.316 µM, first compound 3.16 µM): 19.1%
- viability, T/C (second compound 0.316 µM, first compound 10 µM): 14.8%
- viability, T/C [13]: 0.12%
- viability, T/C [14]: 0.11%
- viability, T/C (second compound 1 µM, first compound 0.316 µM): 0.1%
- viability, T/C (second compound 1 µM, first compound 1 µM): 0.08%
- viability, T/C (second compound 1 µM, first compound 3.16 µM): 1.26%
- viability, T/C (second compound 1 µM, first compound 10 µM): 0.11%
- viability, T/C [15]: 0.39%
- viability, T/C [16]: 1.04%
- viability, T/C (second compound 3.16 µM, first compound 0.316 µM): 0.08%
- viability, T/C (second compound 3.16 µM, first compound 1 µM): 1.36%
- viability, T/C (second compound 3.16 µM, first compound 3.16 µM): 0.05%
- viability, T/C (second compound 3.16 µM, first compound 10 µM): 0.94%
- viability, T/C [17]: 1.85%
- viability, T/C [18]: 1.37%
- viability, T/C (second compound 10 µM, first compound 0.316 µM): 0.12%
- viability, T/C (second compound 10 µM, first compound 1 µM): 0.11%
- viability, T/C (second compound 10 µM, first compound 3.16 µM): 0.1%
- viability, T/C (second compound 10 µM, first compound 10 µM): 0.68%

- IC50 (compound alone, run of 09/19/2023): 75.8 nM [middle of 12 runs]
Compound: CNC(=O)c1ccc(Nc2nc(OC3CCCC3)c3c(-c4ccc5nc(C)oc5c4)c[nH]c3n2)c(OC)c1
- viability, T/C (compound 0.0316 µM): 82.9% [middle of 12 runs]
- viability, T/C (compound 0.1 µM): 39.7% [middle of 12 runs]
- viability, T/C (compound 0.316 µM): 39% [middle of 12 runs]
- viability, T/C (compound 1 µM): 32.1% [middle of 12 runs]
- viability, T/C (compound 3.16 µM): 35.5% [middle of 12 runs]
- viability, T/C (compound 10 µM): 33.9% [middle of 12 runs]

- IC50 (curve of compound): > 1000 nM
Compound: CCN1CCN(Cc2ccc(Nc3ncc(F)c(-c4cc(F)c5nc(C)n(C(C)C)c5c4)n3)nc2)CC1
- viability, T/C (compound 0.00316 µM): 87% and 87.5%
- viability, T/C (compound 0.01 µM): 81.6% and 73%
- viability, T/C (compound 0.0316 µM): 83.8% and 93.2%
- viability, T/C (compound 0.1 µM): 110% and 88.4%
- viability, T/C (compound 0.316 µM): 89.1% and 101%
- viability, T/C (compound 1 µM): 81% and 78%
